Experiments:
[1] = tested on: Rattus norvegicus; experiment: Percent reduction in Spontaneously hypertensive rat blood pressure after 4.5 hr of 3 mg/kg, po administration; assay type: functional
[2] = tested on: Rattus norvegicus; experiment: Percent reduction in Spontaneously hypertensive rat blood pressure after 1 hr of 3 mg/kg, po administration; assay type: functional
[3] = target: T1, Adrenergic receptor alpha-2 (Rattus norvegicus) (UniProt P22086+P19328+P22909); experiment: Binding affinity towards alpha-2 adrenergic receptor from rat brain homogenate preparation by displacement of [3H]clonidine at 10e-6 M concentration; assay type: tissue-based
[4] = target: T2, Adrenergic receptor alpha-1 (Rattus norvegicus, UniProt P15823+P23944+P43140); experiment: Binding affinity towards alpha-1 adrenergic receptor from rat brain homogenate preparation by displacement of [3H]prazosin; assay type: tissue-based
T2 sequence (P15823 whole entry): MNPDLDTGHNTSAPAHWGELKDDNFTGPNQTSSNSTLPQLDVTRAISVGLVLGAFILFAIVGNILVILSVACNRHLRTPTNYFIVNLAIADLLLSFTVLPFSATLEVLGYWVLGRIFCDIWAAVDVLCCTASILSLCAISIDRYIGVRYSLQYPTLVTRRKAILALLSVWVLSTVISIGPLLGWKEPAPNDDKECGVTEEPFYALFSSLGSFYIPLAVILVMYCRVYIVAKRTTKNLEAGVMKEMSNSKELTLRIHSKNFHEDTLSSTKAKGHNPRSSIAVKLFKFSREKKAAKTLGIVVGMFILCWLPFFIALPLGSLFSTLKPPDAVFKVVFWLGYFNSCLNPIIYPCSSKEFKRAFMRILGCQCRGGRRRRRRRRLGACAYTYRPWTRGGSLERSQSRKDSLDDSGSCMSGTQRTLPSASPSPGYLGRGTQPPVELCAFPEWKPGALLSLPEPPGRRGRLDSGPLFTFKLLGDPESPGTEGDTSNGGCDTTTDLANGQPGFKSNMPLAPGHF
T2 sequence (P23944 whole entry): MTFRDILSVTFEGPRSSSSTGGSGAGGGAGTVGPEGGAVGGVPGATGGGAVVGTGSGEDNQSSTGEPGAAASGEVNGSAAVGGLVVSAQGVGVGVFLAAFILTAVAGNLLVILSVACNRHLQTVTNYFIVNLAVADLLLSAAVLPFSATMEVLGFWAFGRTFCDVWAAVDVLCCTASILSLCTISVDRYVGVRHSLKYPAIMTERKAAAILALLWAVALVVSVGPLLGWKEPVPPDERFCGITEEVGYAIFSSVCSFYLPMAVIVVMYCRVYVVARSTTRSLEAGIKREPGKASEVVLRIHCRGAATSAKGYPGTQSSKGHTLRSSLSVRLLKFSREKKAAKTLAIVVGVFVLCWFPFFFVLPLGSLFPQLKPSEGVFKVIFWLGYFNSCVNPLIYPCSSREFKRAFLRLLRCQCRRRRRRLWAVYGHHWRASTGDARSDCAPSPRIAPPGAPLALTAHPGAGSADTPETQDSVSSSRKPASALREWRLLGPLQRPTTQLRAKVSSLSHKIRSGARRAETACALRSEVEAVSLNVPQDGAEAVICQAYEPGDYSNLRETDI
T2 sequence (P43140 whole entry): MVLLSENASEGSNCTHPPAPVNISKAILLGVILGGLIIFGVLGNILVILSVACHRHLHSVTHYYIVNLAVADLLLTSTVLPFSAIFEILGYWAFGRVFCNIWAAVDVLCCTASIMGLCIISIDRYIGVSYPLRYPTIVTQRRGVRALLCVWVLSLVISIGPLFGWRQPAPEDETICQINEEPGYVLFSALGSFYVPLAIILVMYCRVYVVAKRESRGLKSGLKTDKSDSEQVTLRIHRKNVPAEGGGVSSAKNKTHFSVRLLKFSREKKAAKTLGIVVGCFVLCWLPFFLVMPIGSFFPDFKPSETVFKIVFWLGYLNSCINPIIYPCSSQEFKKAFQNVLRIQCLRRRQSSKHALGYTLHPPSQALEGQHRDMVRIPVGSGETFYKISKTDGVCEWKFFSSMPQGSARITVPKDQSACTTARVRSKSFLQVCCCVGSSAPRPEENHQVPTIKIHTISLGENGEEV

[5] = tested on: Rattus norvegicus; experiment: Percent reduction in Spontaneously hypertensive rat blood pressure after 1 h of 3 mg/kg, po administration; assay type: functional
[6] = target: T3, Adrenergic receptor alpha-2 (Rattus norvegicus, UniProt P22086+P19328+P22909); experiment: Binding affinity towards alpha-2 adrenergic receptor from rat brain homogenate preparation by displacement of [3H]clonidine; assay type: tissue-based
T3 sequence (P22086 whole entry): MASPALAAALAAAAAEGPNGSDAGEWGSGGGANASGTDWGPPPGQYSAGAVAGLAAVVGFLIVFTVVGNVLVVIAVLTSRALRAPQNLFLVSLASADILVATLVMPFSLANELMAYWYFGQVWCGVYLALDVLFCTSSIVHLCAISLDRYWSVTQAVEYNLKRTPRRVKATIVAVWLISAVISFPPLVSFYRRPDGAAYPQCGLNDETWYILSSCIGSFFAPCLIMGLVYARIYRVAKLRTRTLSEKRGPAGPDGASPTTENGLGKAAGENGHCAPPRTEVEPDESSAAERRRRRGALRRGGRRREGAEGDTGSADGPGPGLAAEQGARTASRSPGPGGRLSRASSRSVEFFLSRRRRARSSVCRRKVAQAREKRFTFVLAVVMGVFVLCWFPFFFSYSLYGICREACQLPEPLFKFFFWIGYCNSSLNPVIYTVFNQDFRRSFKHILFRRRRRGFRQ
T3 sequence (P19328 whole entry): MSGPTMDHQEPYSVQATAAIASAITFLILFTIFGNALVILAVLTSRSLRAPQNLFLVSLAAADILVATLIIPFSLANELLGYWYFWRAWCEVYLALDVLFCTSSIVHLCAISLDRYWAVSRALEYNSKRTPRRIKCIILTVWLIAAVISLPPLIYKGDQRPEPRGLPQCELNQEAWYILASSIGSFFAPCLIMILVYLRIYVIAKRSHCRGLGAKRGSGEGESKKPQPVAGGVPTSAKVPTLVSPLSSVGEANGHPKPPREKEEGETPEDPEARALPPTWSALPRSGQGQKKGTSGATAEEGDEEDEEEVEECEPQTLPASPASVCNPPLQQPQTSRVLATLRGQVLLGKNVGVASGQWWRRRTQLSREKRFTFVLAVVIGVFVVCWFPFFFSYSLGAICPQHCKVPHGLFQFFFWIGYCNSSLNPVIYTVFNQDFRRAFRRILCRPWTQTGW
T3 sequence (P22909 whole entry): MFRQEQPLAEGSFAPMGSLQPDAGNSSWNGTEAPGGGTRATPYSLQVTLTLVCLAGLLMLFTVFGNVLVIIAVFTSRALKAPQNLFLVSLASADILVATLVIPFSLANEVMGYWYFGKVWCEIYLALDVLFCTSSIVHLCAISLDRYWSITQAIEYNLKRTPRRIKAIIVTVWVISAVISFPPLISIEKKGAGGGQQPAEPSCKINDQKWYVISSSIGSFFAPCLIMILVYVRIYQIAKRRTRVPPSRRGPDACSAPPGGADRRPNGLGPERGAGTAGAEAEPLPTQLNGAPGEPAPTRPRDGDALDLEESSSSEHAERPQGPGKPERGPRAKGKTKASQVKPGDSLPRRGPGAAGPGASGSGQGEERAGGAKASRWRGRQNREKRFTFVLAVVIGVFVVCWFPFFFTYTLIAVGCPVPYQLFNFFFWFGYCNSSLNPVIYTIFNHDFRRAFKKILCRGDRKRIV

[7] = target: T1, Adrenergic receptor alpha-2 (Rattus norvegicus); experiment: Binding affinity towards alpha-2 adrenergic receptor from rat brain homogenate preparation by displacement of [3H]clonidine at 10E-6 M; assay type: tissue-based
[8] = target: T1, Adrenergic receptor alpha-2 (Rattus norvegicus); experiment: Binding affinity towards alpha-2 adrenergic receptor from rat brain homogenate preparation by displacement of [3H]clonidine at 10e-6 M; assay type: tissue-based

Structure (SMILES) | Displacement [3] | Ki [4] | Ki [6] | Displacement [7] | Displacement [8] | Reduction [1] | Reduction [2] | Reduction [5]
CCOc1ccnc(N2CCN(c3cc(N)c4cc(OC)c(OC)cc4n3)CC2)n1 | < 50% | 0.42 nM | – | – | – | 22% | – | 19%
COc1cc2nc(N3CCNCC3)cc(N)c2cc1OC | < 50% | 30.06 nM | – | – | – | 14% | – | 11%
COc1cc2nc(N3CCN(Cc4ccccc4)CC3)cc(N)c2cc1OC | – | – | – | – | – | 10% | – | 8%
COc1cc2nc(N3CCN(C(=O)C4COc5ccccc5O4)CC3)cc(N)c2cc1OC (stereo not drawn) | < 50% | 0.81 nM | – | – | – | 13% | – | 6%
COc1cc2nc(N3CCN(c4ccccc4)CC3)cc(N)c2cc1OC | – | 1.72 nM | 51.6 nM | – | – | 24% | – | 8%
COc1cc2nc(N3CCN(C(=O)c4ccco4)CC3)nc(N)c2cc1OC [PRAZOSIN] | – | – | – | – | – | 15% | – | 24%
CCCNC(=O)N1CCN(c2cc(N)c3cc(OC)c(OC)cc3n2)CC1 | < 50% | 0.44 nM | – | – | – | 8% | – | 3%
COc1cc2nc(N3CCN(C(=O)Nc4ccccc4)CC3)cc(N)c2cc1OC | – | 0.34 nM | 66 nM | – | – | 25% | – | 20%

Further lines, with some results ahead:

Displacement [3] | Ki [4] | Ki [6] | Displacement [7] | Displacement [8] | Structure (SMILES) | Reduction [1] | Reduction [2] | Reduction [5]
< 50% | 0.14 nM | – | – | – | COc1cc2nc(N3CCN(C(=O)c4ccco4)CC3)cc(N)c2cc1OC | 25% | 32% | –
– | 1.17 nM | – | – | – | COc1cc2nc(N3CCN(C(C)=O)CC3)cc(N)c2cc1OC | 7% | – | 4%
< 50% | 0.29 nM | – | – | – | C=CCNC(=O)N1CCN(c2cc(N)c3cc(OC)c(OC)cc3n2)CC1 | 17% | – | 15%
– | 0.46 nM | 55.3 nM | – | – | COc1cc2nc(N3CCN(c4nccc(N(C)C)n4)CC3)cc(N)c2cc1OC | 19% | – | 16%
– | – | – | < 50% | – | COc1cc2nc(N(C)C)cc(N)c2cc1OC | 11% | – | 12%
< 50% | 0.63 nM | – | – | – | COc1cc2nc(N3CCN(c4nccc(C)n4)CC3)cc(N)c2cc1OC | 8% | – | 10%
< 50% | 2.93 nM | – | – | – | COc1cc2nc(N3CCCCC3)cc(N)c2cc1OC | 6% | – | 6%
– | 0.49 nM | – | – | < 50% | COc1cc2nc(N3CCN(C(=O)c4ccccc4)CC3)cc(N)c2cc1OC | 19% | – | 19%

— ChEMBL document CHEMBL1124293, “2,4-Diamino-6,7-dimethoxyquinoline derivatives as alpha 1-adrenoceptor antagonists and antihypertensive agents” (J Med Chem, 1988)
